Where a SMILES comes first, the peptide text is derived from it. Bridges are numbered along the chain shown (N, C = ends). [ ]: non-standard residue; d: D form. Bip = N[C@@H](Cc1ccc(-c2ccccc2)cc1)C(=O)O; 2Nal = N[C@@H](Cc1ccc2ccccc2c1)C(=O)O
Legend:
Trypsin-3 = molecular target: T1, Trypsin-3 (Homo sapiens, UniProt P35030); test: Competitive inhibition of recombinant human mesotrypsin using Z-GPR-MCA as substrate measured every 30 secs for 10 mins
T1 sequence (P35030 whole entry): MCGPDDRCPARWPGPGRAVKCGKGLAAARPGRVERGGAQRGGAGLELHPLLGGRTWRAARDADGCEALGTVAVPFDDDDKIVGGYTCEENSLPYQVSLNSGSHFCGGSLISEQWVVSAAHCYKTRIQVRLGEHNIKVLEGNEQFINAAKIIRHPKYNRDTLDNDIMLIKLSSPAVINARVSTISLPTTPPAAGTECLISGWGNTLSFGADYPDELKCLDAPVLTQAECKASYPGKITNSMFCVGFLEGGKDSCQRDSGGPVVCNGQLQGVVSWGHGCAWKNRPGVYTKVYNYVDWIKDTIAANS

Trypsin-3 (Homo sapiens) = molecular target: T2, Trypsin-3 (Homo sapiens) (UniProt P35030); test: Potency index, ratio of SFTI-1 Ki to test compound Ki for recombinant human mesotrypsin
T2 sequence (whole entry): T1 sequence (P35030 whole entry)

Serine protease 1 [1] = molecular target: T3, Serine protease 1 (Homo sapiens, UniProt P07477); test: Inhibition of human cationic trypsin using Boc-VPR-MCA as substrate measured every 30 secs for 10 mins
Serine protease 1 [2] = molecular target: T3, Serine protease 1; test: Potency index, ratio of SFTI-1 Ki to test compound Ki for human cationic trypsin
Serine protease 1 [3] = molecular target: T4, Serine protease 1 (Bos taurus, UniProt P00760); test: Inhibition of bovine beta-trypsin using Boc-QAR-MCA as substrate measured every 30 secs for 10 mins
T4 sequence (P00760 whole entry): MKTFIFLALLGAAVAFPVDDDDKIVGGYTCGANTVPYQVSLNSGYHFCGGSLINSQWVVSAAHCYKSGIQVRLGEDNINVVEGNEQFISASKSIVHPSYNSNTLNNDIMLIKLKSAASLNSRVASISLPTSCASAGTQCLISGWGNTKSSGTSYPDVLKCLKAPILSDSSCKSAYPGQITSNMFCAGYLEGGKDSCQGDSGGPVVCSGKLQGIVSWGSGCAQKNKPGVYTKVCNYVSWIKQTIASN

[4] = molecular target: T5, Serine protease 1 (Bos taurus) (UniProt P00760); test: Potency index, ratio of SFTI-1 Ki to test compound Ki for bovine beta-trypsin
T5 sequence (whole entry): T4 sequence (P00760 whole entry)

[5] = molecular target: T6, Suppressor of tumorigenicity 14 protein (Homo sapiens) (UniProt Q9Y5Y6); test: Inhibition of recombinant human matriptase at 50 uM using Boc-QAR-MCA as substrate measured every 30 secs for 10 mins relative to control
T6 sequence (whole entry): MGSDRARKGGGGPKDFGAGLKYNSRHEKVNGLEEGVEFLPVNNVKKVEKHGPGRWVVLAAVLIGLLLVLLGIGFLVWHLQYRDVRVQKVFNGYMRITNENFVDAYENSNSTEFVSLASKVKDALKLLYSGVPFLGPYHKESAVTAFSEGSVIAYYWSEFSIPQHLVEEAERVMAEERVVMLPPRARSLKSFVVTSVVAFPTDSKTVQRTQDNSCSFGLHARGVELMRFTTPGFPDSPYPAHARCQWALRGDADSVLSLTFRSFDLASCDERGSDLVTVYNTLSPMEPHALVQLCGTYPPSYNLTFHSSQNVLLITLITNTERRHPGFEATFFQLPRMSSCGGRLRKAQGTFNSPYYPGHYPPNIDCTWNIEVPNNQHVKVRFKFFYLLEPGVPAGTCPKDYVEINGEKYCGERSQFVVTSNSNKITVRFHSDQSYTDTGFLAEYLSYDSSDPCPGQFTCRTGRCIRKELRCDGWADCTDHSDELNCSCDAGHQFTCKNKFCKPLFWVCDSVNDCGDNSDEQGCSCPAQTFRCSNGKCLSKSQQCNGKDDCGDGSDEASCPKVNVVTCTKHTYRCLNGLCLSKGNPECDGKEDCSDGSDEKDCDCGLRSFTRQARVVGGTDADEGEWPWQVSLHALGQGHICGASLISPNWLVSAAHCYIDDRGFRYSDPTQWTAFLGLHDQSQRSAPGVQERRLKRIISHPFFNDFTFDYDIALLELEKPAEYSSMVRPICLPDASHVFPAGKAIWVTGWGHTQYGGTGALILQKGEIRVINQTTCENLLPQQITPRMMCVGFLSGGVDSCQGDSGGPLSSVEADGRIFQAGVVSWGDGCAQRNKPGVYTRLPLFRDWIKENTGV

Prothrombin [6] = molecular target: T7, Prothrombin (Homo sapiens, UniProt P00734); test: Inhibition of human alpha thrombin at 50 uM using Boc-VPR-MCA as substrate measured every 30 secs for 10 mins relative to control
[7] = molecular target: Chymotrypsinogen A (Bos taurus) (UniProt P00766); test: Inhibition of bovine alpha-chymotrypsin at 50 uM using Suc-AAPF-MCA as substrate measured every 30 secs for 10 mins relative to control
[8] = molecular target: T8, Suppressor of tumorigenicity 14 protein (Homo sapiens, UniProt Q9Y5Y6); test: Inhibition of recombinant human matriptase using Boc-QAR-MCA as substrate measured every 30 secs for 10 mins
T8 sequence (Q9Y5Y6 whole entry): T6 sequence (whole entry)

Prothrombin [9] = molecular target: T7, Prothrombin; test: Inhibition of human alpha thrombin using Boc-VPR-MCA as substrate measured every 30 secs for 10 mins
Chymotrypsinogen A = Chymotrypsinogen A (Bos taurus, UniProt P00766); test: Inhibition of bovine alpha-chymotrypsin using Suc-AAPF-MCA as substrate measured every 30 secs for 10 mins

T3 sequence (P07477 whole entry): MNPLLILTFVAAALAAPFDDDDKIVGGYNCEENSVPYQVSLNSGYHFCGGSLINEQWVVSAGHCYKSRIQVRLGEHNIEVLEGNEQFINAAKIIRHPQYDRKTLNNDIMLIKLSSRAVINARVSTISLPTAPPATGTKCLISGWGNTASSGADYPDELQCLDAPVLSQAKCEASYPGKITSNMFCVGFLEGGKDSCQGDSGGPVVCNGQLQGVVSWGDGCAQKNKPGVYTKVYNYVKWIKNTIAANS

| SMILES | Ki (Trypsin-3) [nM] | Ratio Ki (Trypsin-3 (Homo sapiens)) | Ki (Serine protease 1 [1]) [nM] | Ratio Ki (Serine protease 1 [2]) | Ki (Serine protease 1 [3]) [nM] | Ratio Ki [4] | inhibition [5] [%] | inhibition (Prothrombin [6]) [%] | inhibition [7] [%] | IC50 [8] [nM] | IC50 (Prothrombin [9]) [nM] | IC50 (Chymotrypsinogen A) [nM] |
| --- | --- | --- | --- | --- | --- | --- | --- | --- | --- | --- | --- | --- |
| CC[C@H](C)[C@@H]1NC(=O)[C@@H]2CCCN2C(=O)[C@@H]2CCCN2C(=O)[C@H](CC(=O)O)NC(=O)[C@H](CO)NC(=O)[C@H](CCCCN)NC(=O)[C@H]([C@@H](C)O)NC(=O)[C@@H]2CSSC[C@H](NC1=O)C(=O)N[C@@H](Cc1ccccc1)C(=O)N1CCC[C@H]1C(=O)N[C@@H](CC(=O)O)C(=O)NCC(=O)N[C@@H](CCCNC(=N)N)C(=O)N2 (cyclo(CFPDGRCTKSDPPI); disulfide 1-7) | 402 | 12 | – | – | – | – | – | – | – | – | – | – |
| CC[C@H](C)[C@@H]1NC(=O)[C@@H]2CCCN2C(=O)[C@@H]2CCCN2C(=O)[C@H](Cc2ccc(-c3ccccc3)cc2)NC(=O)[C@H](CO)NC(=O)[C@H](CCCNC(=N)N)NC(=O)[C@H]([C@@H](C)O)NC(=O)[C@@H]2CSSC[C@H](NC1=O)C(=O)N[C@@H](Cc1ccccc1)C(=O)N1CCC[C@H]1C(=O)N[C@@H](CC(=O)O)C(=O)NCC(=O)N[C@@H](CCCNC(=N)N)C(=O)N2 (cyclo([Bip]PPICFPDGRCTRS); disulfide 5-11) | 28 | 177 | 1.9 | 63 | 0.17 | 21 | – | – | – | – | – | – |
| CC[C@H](C)[C@@H]1NC(=O)[C@@H]2CCCN2C(=O)[C@@H]2CCCN2C(=O)CNC(=O)[C@H](CO)NC(=O)[C@H](CCCNC(=N)N)NC(=O)[C@H]([C@@H](C)O)NC(=O)[C@@H]2CSSC[C@H](NC1=O)C(=O)N[C@@H](Cc1ccccc1)C(=O)N1CCC[C@H]1C(=O)N[C@@H](CC(=O)O)C(=O)NCC(=O)N[C@@H](CCCNC(=N)N)C(=O)N2 (cyclo(CFPDGRCTRSGPPI); disulfide 1-7) | 369 | 13 | 100 | 3330 | 196 | 24500 | – | – | – | – | – | – |
| CC[C@H](C)[C@@H]1NC(=O)[C@@H]2CCCN2C(=O)[C@@H]2CCCN2C(=O)[C@H](CO)NC(=O)[C@H](CO)NC(=O)[C@H](CCCCN)NC(=O)[C@H]([C@@H](C)O)NC(=O)[C@@H]2CSSC[C@H](NC1=O)C(=O)N[C@@H](Cc1ccccc1)C(=O)N1CCC[C@H]1C(=O)N[C@@H](CC(=O)O)C(=O)NCC(=O)N[C@@H](CCCNC(=N)N)C(=O)N2 (cyclo(CFPDGRCTKSSPPI); disulfide 1-7) | 335 | 15 | – | – | – | – | – | – | – | – | – | – |
| CC[C@H](C)[C@@H]1NC(=O)[C@@H]2CCCN2C(=O)[C@@H]2CCCN2C(=O)[C@H]([C@@H](C)CC)NC(=O)[C@H](CO)NC(=O)[C@H](CCCCN)NC(=O)[C@H]([C@@H](C)O)NC(=O)[C@@H]2CSSC[C@H](NC1=O)C(=O)N[C@@H](Cc1ccccc1)C(=O)N1CCC[C@H]1C(=O)N[C@@H](CC(=O)O)C(=O)NCC(=O)N[C@@H](CCCNC(=N)N)C(=O)N2 | – | – | 0.03 | – | – | – | – | – | – | – | – | – |
| CC[C@H](C)[C@@H]1NC(=O)[C@@H]2CCCN2C(=O)[C@@H]2CCCN2C(=O)CNC(=O)[C@H](CO)NC(=O)[C@H](CCCCN)NC(=O)[C@H]([C@@H](C)O)NC(=O)[C@@H]2CSSC[C@H](NC1=O)C(=O)N[C@@H](Cc1ccccc1)C(=O)N1CCC[C@H]1C(=O)N[C@@H](CC(=O)O)C(=O)NCC(=O)N[C@@H](CCCNC(=N)N)C(=O)N2 (cyclo(CFPDGRCTKSGPPI); disulfide 1-7) | 134 | 37 | 49 | 1630 | 81 | 10100 | < 50 | < 50 | < 50 | > 50000 | > 50000 | > 50000 |

The next lines start with the values.

| Ki (Trypsin-3) [nM] | Ratio Ki (Trypsin-3 (Homo sapiens)) | Ki (Serine protease 1 [1]) [nM] | Ratio Ki (Serine protease 1 [2]) | Ki (Serine protease 1 [3]) [nM] | Ratio Ki [4] | inhibition [5] [%] | inhibition (Prothrombin [6]) [%] | inhibition [7] [%] | IC50 [8] [nM] | IC50 (Prothrombin [9]) [nM] | IC50 (Chymotrypsinogen A) [nM] | SMILES |
| --- | --- | --- | --- | --- | --- | --- | --- | --- | --- | --- | --- | --- |
| 38 | 131 | 2.6 | 87 | 0.23 | 29 | – | – | – | – | – | – | CC[C@H](C)[C@@H]1NC(=O)[C@@H]2CCCN2C(=O)[C@@H]2CCCN2C(=O)[C@H](Cc2ccc3ccccc3c2)NC(=O)[C@H](CO)NC(=O)[C@H](CCCNC(=N)N)NC(=O)[C@H]([C@@H](C)O)NC(=O)[C@@H]2CSSC[C@H](NC1=O)C(=O)N[C@@H](Cc1ccccc1)C(=O)N1CCC[C@H]1C(=O)N[C@@H](CC(=O)O)C(=O)NCC(=O)N[C@@H](CCCNC(=N)N)C(=O)N2 (cyclo([2Nal]PPICFPDGRCTRS); disulfide 5-11) |
| 45 | 110 | – | – | – | – | – | – | – | – | – | – | CC[C@H](C)[C@@H]1NC(=O)[C@@H]2CCCN2C(=O)[C@@H]2CCCN2C(=O)[C@H](Cc2ccccc2)NC(=O)[C@H](CO)NC(=O)[C@H](CCCCN)NC(=O)[C@H]([C@@H](C)O)NC(=O)[C@@H]2CSSC[C@H](NC1=O)C(=O)N[C@@H](Cc1ccccc1)C(=O)N1CCC[C@H]1C(=O)N[C@@H](CC(=O)O)C(=O)NCC(=O)N[C@@H](CCCNC(=N)N)C(=O)N2 (cyclo(CFPDGRCTKSFPPI); disulfide 1-7) |
| 35 | 142 | 0.76 | 25 | 0.062 | 8 | – | – | – | – | – | – | CC[C@H](C)[C@@H]1NC(=O)[C@@H]2CCCN2C(=O)[C@@H]2CCCN2C(=O)[C@H](Cc2ccc(-c3ccccc3)cc2)NC(=O)[C@H](CO)NC(=O)[C@H](CCCCN)NC(=O)[C@H]([C@@H](C)O)NC(=O)[C@@H]2CSSC[C@H](NC1=O)C(=O)N[C@@H](Cc1ccccc1)C(=O)N1CCC[C@H]1C(=O)N[C@@H](CC(=O)O)C(=O)NCC(=O)N[C@@H](CCCNC(=N)N)C(=O)N2 (cyclo([Bip]PPICFPDGRCTKS); disulfide 5-11) |
| 26 | 191 | 0.87 | 29 | 0.046 | 6 | – | – | – | – | – | – | CC[C@H](C)[C@@H]1NC(=O)[C@@H]2CCCN2C(=O)[C@@H]2CCCN2C(=O)[C@H](Cc2ccc3ccccc3c2)NC(=O)[C@H](CO)NC(=O)[C@H](CCCCN)NC(=O)[C@H]([C@@H](C)O)NC(=O)[C@@H]2CSSC[C@H](NC1=O)C(=O)N[C@@H](Cc1ccccc1)C(=O)N1CCC[C@H]1C(=O)N[C@@H](CC(=O)O)C(=O)NCC(=O)N[C@@H](CCCNC(=N)N)C(=O)N2 (cyclo([2Nal]PPICFPDGRCTKS); disulfide 5-11) |
